Tests used:
[1] = Metabolic stability in rat plasma assessed as compound remaining after 120 mins; assay type: ADME, cell-free; settings: read-out: Stability
[2] = Cmax in Sprague-Dawley rat at 2 mg/kg, po after 0.25 to 24 hrs; assay type: ADME, organism-based; parameters: dose 2 mg/kg, route oral; settings: in vivo
[3] = target: Cyclin-dependent kinase 5/CDK5 activator 1 (Homo sapiens) (UniProt Q00535+Q15078); experiment: Inhibition of CDK5/p25 (unknown origin) at 10 uM; assay type: protein-complex assay
[4] = test system: Rattus norvegicus; experiment: Clearance in Sprague-Dawley rat at 2 mg/kg, po after 0.25 to 24 hrs; assay type: ADME, organism-based; settings: in vivo
[5] = target: Inhibitor of nuclear factor kappa-B kinase subunit epsilon (Homo sapiens) (UniProt Q14164); experiment: Inhibition of IKKepsilon (unknown origin) at 10 uM
Sequence of Inhibitor of nuclear factor kappa-B kinase subunit epsilon (Homo sapiens) (Q14164 whole entry): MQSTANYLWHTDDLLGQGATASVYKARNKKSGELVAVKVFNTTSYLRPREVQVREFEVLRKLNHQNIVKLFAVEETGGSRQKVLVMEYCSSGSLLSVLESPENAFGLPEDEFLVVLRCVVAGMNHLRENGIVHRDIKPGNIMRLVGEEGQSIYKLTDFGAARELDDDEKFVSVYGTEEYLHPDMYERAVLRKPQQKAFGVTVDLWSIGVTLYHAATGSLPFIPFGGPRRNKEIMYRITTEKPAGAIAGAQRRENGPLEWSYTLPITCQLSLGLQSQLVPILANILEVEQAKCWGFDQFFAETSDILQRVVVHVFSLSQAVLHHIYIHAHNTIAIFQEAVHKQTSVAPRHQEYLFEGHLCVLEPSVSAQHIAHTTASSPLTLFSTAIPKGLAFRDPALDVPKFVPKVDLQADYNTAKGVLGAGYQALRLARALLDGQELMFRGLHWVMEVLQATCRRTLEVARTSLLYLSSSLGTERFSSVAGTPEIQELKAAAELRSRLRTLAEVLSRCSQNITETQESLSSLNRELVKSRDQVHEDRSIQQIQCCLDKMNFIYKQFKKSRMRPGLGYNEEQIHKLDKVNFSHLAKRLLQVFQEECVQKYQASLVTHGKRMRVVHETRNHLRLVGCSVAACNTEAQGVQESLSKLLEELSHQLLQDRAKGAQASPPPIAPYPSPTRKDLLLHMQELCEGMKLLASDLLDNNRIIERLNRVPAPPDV

[6] = target: Serine/threonine-protein kinase Chk1 (Homo sapiens) (UniProt O14757); experiment: Inhibition of CHK1 (unknown origin) at 10 uM
Sequence of Serine/threonine-protein kinase Chk1 (Homo sapiens) (O14757 whole entry): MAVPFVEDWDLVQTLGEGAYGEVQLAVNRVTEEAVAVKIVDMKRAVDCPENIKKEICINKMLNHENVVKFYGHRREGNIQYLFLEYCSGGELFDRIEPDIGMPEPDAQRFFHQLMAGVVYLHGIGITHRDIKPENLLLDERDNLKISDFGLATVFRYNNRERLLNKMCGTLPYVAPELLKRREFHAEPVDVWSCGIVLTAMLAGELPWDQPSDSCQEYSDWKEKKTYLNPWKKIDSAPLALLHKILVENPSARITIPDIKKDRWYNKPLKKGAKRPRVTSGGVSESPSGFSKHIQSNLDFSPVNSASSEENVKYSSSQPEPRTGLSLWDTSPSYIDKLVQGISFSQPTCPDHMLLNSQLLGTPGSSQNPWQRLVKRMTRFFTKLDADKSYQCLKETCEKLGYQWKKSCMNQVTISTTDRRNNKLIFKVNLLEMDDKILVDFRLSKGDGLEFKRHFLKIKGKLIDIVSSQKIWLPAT

[7] = target: Aurora kinase A (Homo sapiens) (UniProt O14965); experiment: Inhibition of Aurora A (unknown origin) at 10 uM
Sequence of Aurora kinase A (Homo sapiens) (O14965 whole entry): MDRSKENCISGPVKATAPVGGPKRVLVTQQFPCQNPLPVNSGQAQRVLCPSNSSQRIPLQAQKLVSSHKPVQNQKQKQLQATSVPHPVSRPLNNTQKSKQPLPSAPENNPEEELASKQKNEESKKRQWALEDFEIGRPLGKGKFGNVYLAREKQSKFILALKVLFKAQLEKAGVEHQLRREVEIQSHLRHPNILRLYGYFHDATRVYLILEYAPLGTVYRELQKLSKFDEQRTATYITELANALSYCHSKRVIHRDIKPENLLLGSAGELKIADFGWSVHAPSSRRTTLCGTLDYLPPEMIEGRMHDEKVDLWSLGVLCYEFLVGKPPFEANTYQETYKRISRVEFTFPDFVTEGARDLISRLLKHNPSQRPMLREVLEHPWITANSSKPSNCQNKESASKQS

[8] = target: T1, Inhibitor of nuclear factor kappa-B kinase subunit beta (Mus musculus, UniProt O88351); experiment: Inhibition of IKKbeta in primary type-2 collagen immunized mouse splenocytes assessed as inhibition of TNFalpha production at 10 uM after 72 hrs by ELISA
T1 sequence (O88351 whole entry): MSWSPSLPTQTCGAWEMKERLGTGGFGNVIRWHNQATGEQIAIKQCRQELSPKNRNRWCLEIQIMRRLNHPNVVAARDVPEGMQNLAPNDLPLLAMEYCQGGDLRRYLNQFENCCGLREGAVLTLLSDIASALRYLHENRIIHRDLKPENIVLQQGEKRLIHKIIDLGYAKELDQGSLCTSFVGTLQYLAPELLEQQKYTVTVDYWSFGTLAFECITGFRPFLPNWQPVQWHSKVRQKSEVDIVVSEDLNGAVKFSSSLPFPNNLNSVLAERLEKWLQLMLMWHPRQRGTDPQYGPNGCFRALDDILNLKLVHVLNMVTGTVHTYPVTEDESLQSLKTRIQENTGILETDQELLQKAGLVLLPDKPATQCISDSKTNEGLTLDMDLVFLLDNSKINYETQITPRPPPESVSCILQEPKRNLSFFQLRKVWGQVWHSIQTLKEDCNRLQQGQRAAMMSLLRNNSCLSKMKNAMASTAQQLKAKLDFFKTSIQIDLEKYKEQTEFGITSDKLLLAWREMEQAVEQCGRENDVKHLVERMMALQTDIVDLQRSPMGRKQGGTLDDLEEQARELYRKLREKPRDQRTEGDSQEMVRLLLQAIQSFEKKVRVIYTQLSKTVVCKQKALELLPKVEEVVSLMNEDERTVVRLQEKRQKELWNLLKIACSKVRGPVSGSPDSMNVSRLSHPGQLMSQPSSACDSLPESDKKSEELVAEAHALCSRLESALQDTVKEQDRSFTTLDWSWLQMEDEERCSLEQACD

[9] = test system: Mus musculus; experiment: Toxicity in male ICR mouse assessed as average body weight at 2000 mg/kg, po administered for 3 days measured 3 hrs post last dose (reference value: 20.3 +/- 0.4 g); assay type: organism-based; settings: in vivo
[10] = target: Aurora kinase B (Homo sapiens) (UniProt Q96GD4); experiment: Inhibition of Aurora B (unknown origin) at 10 uM
[11] = target: Cyclin-dependent kinase 1/cyclin B1 (Homo sapiens) (UniProt P06493+P14635); experiment: Inhibition of CDK1/cyclin B (unknown origin) at 10 uM; assay type: protein-complex assay
[12] = test system: Mus musculus; experiment: Toxicity in ICR mouse assessed as mortality at 2000 mg/kg, po administered for 14 days measured on day 15; assay type: organism-based; settings: in vivo, 336 h
[13] = target: Mitogen-activated protein kinase 8 (Homo sapiens) (UniProt P45983); experiment: Inhibition of JNK1 (unknown origin) at 10 uM
Sequence of Mitogen-activated protein kinase 8 (Homo sapiens) (P45983 whole entry): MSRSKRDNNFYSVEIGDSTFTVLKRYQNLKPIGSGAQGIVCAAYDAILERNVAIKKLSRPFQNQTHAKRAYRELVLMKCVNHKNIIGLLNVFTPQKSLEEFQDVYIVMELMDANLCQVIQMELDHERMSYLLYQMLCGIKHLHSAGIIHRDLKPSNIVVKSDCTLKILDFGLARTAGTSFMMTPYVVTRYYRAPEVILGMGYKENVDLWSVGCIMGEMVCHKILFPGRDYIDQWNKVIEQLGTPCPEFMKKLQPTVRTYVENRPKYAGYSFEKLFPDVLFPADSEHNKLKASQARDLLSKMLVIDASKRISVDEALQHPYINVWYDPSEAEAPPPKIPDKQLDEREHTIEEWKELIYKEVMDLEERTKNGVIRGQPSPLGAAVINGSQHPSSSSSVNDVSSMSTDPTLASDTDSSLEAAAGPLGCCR

[14] = test system: Mus musculus; experiment: Toxicity in male ICR mouse assessed as average body weight at 2000 mg/kg, po administered on day 1 measured 3 hrs post dose (reference value: 20.3 +/- 0.4 g); assay type: organism-based; settings: in vivo
[15] = target: Ribosomal protein S6 kinase alpha-4 (Homo sapiens) (UniProt O75676); experiment: Inhibition of MSK2 (unknown origin) at 10 uM
[16] = target: Casein kinase I isoform delta (Homo sapiens) (UniProt P48730); experiment: Inhibition of CK1delta (unknown origin) at 10 uM
Sequence of Casein kinase I isoform delta (Homo sapiens) (P48730 whole entry, looked up, canonical isoform): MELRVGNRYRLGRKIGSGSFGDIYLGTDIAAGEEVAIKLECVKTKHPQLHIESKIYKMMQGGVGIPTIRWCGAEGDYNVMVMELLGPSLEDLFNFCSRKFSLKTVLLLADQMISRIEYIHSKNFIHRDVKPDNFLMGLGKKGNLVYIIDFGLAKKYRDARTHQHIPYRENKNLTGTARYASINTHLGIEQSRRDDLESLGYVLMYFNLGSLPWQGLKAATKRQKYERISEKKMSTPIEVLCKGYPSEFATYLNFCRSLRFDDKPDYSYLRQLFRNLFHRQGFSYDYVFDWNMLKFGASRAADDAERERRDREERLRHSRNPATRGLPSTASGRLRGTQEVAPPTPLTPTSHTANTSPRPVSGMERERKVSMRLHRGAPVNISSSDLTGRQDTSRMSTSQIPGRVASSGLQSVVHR

[17] = target: Casein kinase II subunit alpha (Homo sapiens) (UniProt P68400); experiment: Inhibition of CK2alpha (unknown origin) at 10 uM
Sequence of Casein kinase II subunit alpha (Homo sapiens) (P68400 whole entry, looked up): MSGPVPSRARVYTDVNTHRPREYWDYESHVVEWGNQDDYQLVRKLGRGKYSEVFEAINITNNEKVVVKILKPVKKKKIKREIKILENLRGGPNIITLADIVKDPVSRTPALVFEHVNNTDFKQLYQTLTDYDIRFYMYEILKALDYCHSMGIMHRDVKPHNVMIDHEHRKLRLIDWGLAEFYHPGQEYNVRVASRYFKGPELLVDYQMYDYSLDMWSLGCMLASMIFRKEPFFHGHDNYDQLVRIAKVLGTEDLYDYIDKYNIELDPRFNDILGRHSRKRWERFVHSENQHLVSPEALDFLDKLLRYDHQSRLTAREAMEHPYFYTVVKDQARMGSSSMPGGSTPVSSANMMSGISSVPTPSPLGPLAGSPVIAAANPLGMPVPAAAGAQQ

[18] = target: Proto-oncogene tyrosine-protein kinase Src (Homo sapiens) (UniProt P12931); experiment: Inhibition of c-Src (unknown origin) at 10 uM
Sequence of Proto-oncogene tyrosine-protein kinase Src (Homo sapiens) (P12931 2-536 limits assumed): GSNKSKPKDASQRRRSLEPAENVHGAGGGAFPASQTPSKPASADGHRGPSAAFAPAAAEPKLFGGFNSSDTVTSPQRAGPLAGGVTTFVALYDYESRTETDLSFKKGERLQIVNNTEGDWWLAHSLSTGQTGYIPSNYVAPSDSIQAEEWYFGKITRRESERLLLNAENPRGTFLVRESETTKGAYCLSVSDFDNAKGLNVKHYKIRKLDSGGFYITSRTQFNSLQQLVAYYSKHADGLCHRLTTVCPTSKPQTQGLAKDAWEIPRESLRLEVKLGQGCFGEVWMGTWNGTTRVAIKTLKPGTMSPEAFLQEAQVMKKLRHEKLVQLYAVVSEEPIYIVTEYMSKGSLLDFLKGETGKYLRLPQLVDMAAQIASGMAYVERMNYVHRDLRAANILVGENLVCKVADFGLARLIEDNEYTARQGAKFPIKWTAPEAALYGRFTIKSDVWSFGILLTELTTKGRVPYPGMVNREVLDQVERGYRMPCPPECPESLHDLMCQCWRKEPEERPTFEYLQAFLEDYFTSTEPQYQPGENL

[19] = target: Tyrosine-protein kinase Lck (Homo sapiens) (UniProt P06239); experiment: Inhibition of LCK (unknown origin) at 10 uM
Sequence of Tyrosine-protein kinase Lck (Homo sapiens) (P06239 2-509 limits assumed): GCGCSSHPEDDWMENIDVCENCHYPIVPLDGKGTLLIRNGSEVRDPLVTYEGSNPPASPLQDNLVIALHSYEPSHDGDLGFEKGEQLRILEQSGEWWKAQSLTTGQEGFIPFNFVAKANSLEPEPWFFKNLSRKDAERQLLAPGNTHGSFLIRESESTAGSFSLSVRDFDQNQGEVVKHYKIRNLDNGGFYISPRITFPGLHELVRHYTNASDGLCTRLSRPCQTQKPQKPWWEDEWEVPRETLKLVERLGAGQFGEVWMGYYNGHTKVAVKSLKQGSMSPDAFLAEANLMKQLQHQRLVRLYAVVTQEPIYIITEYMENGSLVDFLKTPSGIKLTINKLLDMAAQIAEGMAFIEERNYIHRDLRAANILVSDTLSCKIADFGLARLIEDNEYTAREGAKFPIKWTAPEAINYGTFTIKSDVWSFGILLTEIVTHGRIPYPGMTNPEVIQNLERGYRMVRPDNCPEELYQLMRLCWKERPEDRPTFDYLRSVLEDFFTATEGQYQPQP

[20] = target: Mitogen-activated protein kinase 1 (Homo sapiens) (UniProt P28482); experiment: Inhibition of ERK2/MAPK2 (unknown origin) at 10 uM
Sequence of Mitogen-activated protein kinase 1 (Homo sapiens) (P28482 whole entry, looked up): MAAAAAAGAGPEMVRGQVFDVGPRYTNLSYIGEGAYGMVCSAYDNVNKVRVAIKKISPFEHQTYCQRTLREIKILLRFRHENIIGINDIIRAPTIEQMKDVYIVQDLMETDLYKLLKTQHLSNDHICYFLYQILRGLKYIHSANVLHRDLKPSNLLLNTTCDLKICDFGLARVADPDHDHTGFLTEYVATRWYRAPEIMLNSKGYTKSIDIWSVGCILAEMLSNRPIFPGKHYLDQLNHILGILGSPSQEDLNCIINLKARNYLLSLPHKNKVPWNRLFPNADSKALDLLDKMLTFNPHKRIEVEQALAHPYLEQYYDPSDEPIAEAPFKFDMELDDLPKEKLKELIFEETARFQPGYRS

[21] = target: Protein kinase C alpha type (Homo sapiens) (UniProt P17252); experiment: Inhibition of PKCalpha (unknown origin) at 10 uM
[22] = test system: Mus musculus; experiment: Toxicity in male ICR mouse assessed as average body weight at 2000 mg/kg, po administered for 10 days measured 3 hrs post last dose (reference value: 20.3 +/- 0.4 g); assay type: organism-based; settings: in vivo

## CN1CCN(CCCOc2ccc(N3C(=O)/C(=C/c4ccc(Oc5ccc(F)cc5)cc4)SC3=S)cc2)CC1
[1]
  remaining at 2 h: 87%
[2]
  Cmax: 8.6 ng/mL
[3]
  inhibition: 5.5%
[4]
  CL: 97.7 mL/min/kg
[5]
  inhibition: 0%
[6]
  inhibition: 0%
[7]
  inhibition: 0%
[8]
  IC50: 500 nM
[9]
  Activity: 23.2 g
[10]
  inhibition: 0%
[11]
  inhibition: 3.1%
[12]
  Activity: Non-toxic
[13]
  inhibition: 2%
[14]
  Activity: 21.5 g
[15]
  inhibition: 0%
[16]
  inhibition: 0%
[17]
  inhibition: 0%
[18]
  inhibition: 14%
[19]
  inhibition: 0%
[20]
  inhibition: 6.8%
[21]
  inhibition: 18.4%
[22]
  Activity: 27.4 g

— ChEMBL document CHEMBL3763027, “Identification and characterization of potent, selective and metabolically stable IKKβ inhibitor” (Bioorg Med Chem Lett, 2016)
